The values that follow come from article PMC9774249, “A Novel Peptide with Antifungal Activity from Red Swamp Crayfish Procambarus clarkii” (Antibiotics, 2022).

As usually defined, the MIC is the smallest concentration in the dilution series that meets the test's criterion for growth inhibition. A low value points to inhibition by little substance.

Assay [1] concerns E. coli ATCC 25922. The class given is cell-based, Escherichia coli. As for the experimental part:
(§1) Natural extracts derived from hemocytes and hemolymph of P. clarkii were liophylized and then resuspended in ultrapure water to obtain a protein content of 22 µg/mL and 1400 µg/mL, respectively. MIC values of extracts were determined by a micro-method previously described based on serial dilution 1:2 of the extracts, using Mueller Hinton II medium and Sabouraud medium (for C. albicans), in 96-well microplates and starting from concentrations of 50% v/v to 1.5 % v/v in a final volume equal to 100 μL. Thus, 10 μL of microbial suspension (5 × 10^6 CFU/ mL) obtained from a bacterial culture grown at 37 °C for 24 h on Tryptic Soy Agar (TSA) in 5 mL of 0.9% NaCl, with a turbidity equivalent to a 0.5 McFarland standard was added to 96-well plates and incubated at 37 °C for 24 h. MICs of extracts were determined by a microplate reader (GloMax®-Multi Detection System, Promega Italia s.r.l, Milan, Italy) with the lowest concentration of the sample whose optical density (OD) at 570 nm was similar to negative control wells (broth without inoculum to control the sterility of medium). Moreover, a positive growth control (bacterial tested strain in the medium without extracts to compare the growth of cells with samples) and a sample control (extract solutions without inoculum to control the absorbance of the samples at different concentrations) were also added.
(§2) The same methods and media were used to determine the antimicrobial activity of synthetic peptides #3, #5, #7, and #14, and derivatives. They were dissolved in ultrapure water, or 1 mL ultrapure water with 40 μL NH4OH (28% v/v) in the case of peptide #14, to obtain a stock solution of 5 mg/mL. Working solutions of 250 μg/mL were prepared for each peptide in MHII or Sabouraud, and test solutions in a 96 wells plate were obtained by diluting in a series 1:2. Each assay was performed in triplicate.

Assay [2] has as its system C. albicans.
For assay [3], the system named is C. albicans ATCC 10231 biofilm. The assay is described as follows: Scanning electron microscopy of biofilm morphology. It is filed as cell-based, Candida albicans. The note with it: 25 μg/mL (sub-MIC), 24 h, versus control. As for the experimental part:
The morphological changes in C. albicans ATCC 10231 cells were assessed by scanning electron microscopy (SEM, Phenom ProX, PhenomWorld, Eindhoven, Netherlands), using the method described by Bezerra et al., with some modifications. Biofilms were fixed with a 4% formaldehyde solution in DPBS for 30 min at 37 °C. Then, the biofilms were washed three times with sodium phosphate buffer (pH = 7.4). Next, samples were dehydrated with increased ethanol concentrations (30%, 50%, 70%, and 100%) for 10 min at 24 °C. Lastly, the final dehydration was conducted with […] (HDMS) for 10 min, removing the solvent at the end of washing to allow the samples to air dry. The samples were analyzed by scanning electron microscopy (SEM, Phenom ProX, PhenomWorld).

In assay [4] the test system is C. albicans ATCC 10231. The assay is described as follows: Cell membrane integrity, propidium iodide uptake. The class given is cell-based, Candida albicans. The note with it: 25, 20 and 15 μg/mL (sub-MIC), 24 h. The method, then:
The cell membrane integrity of C. albicans ATCC 10231 after exposure to peptide #14d was evaluated using the PI uptake assay, as described by Bezerra et al., with some modifications. C. albicans ATCC 10231 was incubated with the peptide #14d in the same conditions reported for inhibition of biofilm formation. Thus, 20 μL of propidium iodide (PI, Molecular probes^TM, Fisher Scientific, Erembodegem, Belgium) was added to each well and the plate was incubated in the dark for 30 min at 25 °C. Then, the plate was washed three times with 0.9% NaCl and observed with an Olympus FV1200 confocal microscope with TIRF (Total internal reflection fluorescence) integrated, using an excitation wavelength of 535 nm and emission wavelength of 617 nm.

The test system of assay [5] is C. albicans ATCC 10231. The class given is cell-based, Candida albicans. The method, then:
as §1, §2

Assay [6] concerns P. aeruginosa ATCC 15442. The class given is cell-based, Pseudomonas aeruginosa. As for the experimental part:
as §1, §2

Assay [7] relates to C. albicans ATCC 10231. The class given is cell-based, Candida albicans. The note with it: ATCC 10231, 24 h. The method, then:
Sub-MIC concentrations were tested for their ability to interfere with the growth as sessile community of S. aureus ATCC 25923, P. aeruginosa ATCC 15442, and C. albicans ATCC 10231, as previously described. Bacterial strains or the fungal strain were incubated in test tubes with TSB or Sabouraud (5 mL) containing 2% w/v glucose at 37 °C for 24 h. After that, small aliquots (2.5 μL) from the diluted microbial suspensions whose turbidity was equivalent to a 0.5 McFarland standard were added to each well of a polystyrene sterile flat-bottom 96-well plate filled with TSB or BS (200 μL) with 2% w/v glucose. Sub-MIC concentration values of amino acidic fraction from hemocytes and hemolymph of P. clarkii or of chemically synthesized peptides were directly added to the wells and the plates were incubated at 37 °C for 24 h. After biofilm growth, samples were washed twice with sterile 0.9% NaCl and stained with 200 μL of 0.1% w/v crystal violet solution for 15 min at 37 °C [58]. Excess solution was discarded, and the plate was washed twice using tap water. […] Last, the absorbance was determined at 600 nm using a microplate reader (GloMax®-Multi Detection System, Promega Italia s.r.l, Milan, Italy). […] The percentage of inhibition was calculated through the formula:% Inhibition = [(OD growth − OD sample)/OD growth control] × 100. […]

Assay [8] relates to C. albicans ATCC 10231. As to the kind of experiment: Overproduction of reactive oxygen species (DCFH-DA). The note with it: 25 and 20 μg/mL. The class given is cell-based, Candida albicans. The method, then:
The ROS overproduction in C. albicans ATCC 10231 due to peptide #14d was evaluated using the method described by Bezerra et al., with some modifications. C. albicans ATCC 10231 was incubated with peptide #14d in the same conditions reported for biofilm inhibition formation. Then, the formed biofilm was washed with 0.9% NaCl three times to remove the Sabouraud liquid medium. After this procedure, 20 μL of 2′,7′ dichlorofluorescein diacetate (DCFH-DA) was added to each well and the plate was incubated in the dark for 30 min at 25 °C. DCFH-DA is oxidized by ROS to dichlorofluorescein, which emits green fluorescence. Lastly, the biofilms were washed with 0.9% NaCl three times and observed with a fluorescence microscope with an excitation wavelength of 488 nm and emission wavelength of 525 nm.

Assay [9] concerns E. faecalis ATCC 29212. It is filed as cell-based, Enterococcus faecalis. The method, then: as §1, §2
The subject of assay [10] is S. aureus ATCC 25923. The class given is cell-based, Staphylococcus aureus. As for the experimental part: as §1, §2
For assay [11], the system named is selected strains. The assay is described as follows: EC50 under low-salt conditions (viable count). The note with it: 10 mM sodium phosphate buffer, 100-0.15 μg/mL, 3 h 37 °C, CFU count, maximum tested 100 μg/mL. It is filed as cell-based. As for the experimental part: The antimicrobial activity of the chemically synthesized peptides #3, #5, #7, and #14, and their derivatives, against selected strains were evaluated in terms of peptide half-maximal effective concentration to inhibit 50% of the viable bacteria (EC50), as reported by other authors. Briefly, 5 × 10^4 CFU per well of tested microorganisms were incubated with peptide concentrations from 100 to 0.15 μg/mL (1:2 serial dilutions) for 3 h at 37 °C in 100 μL of 10 mM sterile sodium phosphate buffer. After 3 h, 10 μL of each dilution was spotted in triplicate on Tryptic Soy Agar plates and incubated at 37 °C for 24 h. After the incubation time, the number of colonies from any sample were counted and compared with the CFU viable count of the none-treated growth control.

Where [12] appears, read: synthetic peptides, E. coli ATCC 25922, maximum tested 250 μg/mL, 1:2 dilutions, MHII, 37 °C 24 h, triplicate.
[13] abbreviates: synthetic peptides, P. aeruginosa ATCC 15442, maximum tested 250 μg/mL, 1:2 dilutions, MHII, 37 °C 24 h, triplicate.
[14] abbreviates: synthetic peptides, E. faecalis ATCC 29212, maximum tested 250 μg/mL, 1:2 dilutions, MHII, 37 °C 24 h, triplicate.
The mark [15] stands for this setting: synthetic peptides, S. aureus ATCC 25923, maximum tested 250 μg/mL, 1:2 dilutions, MHII, 37 °C 24 h, triplicate.

Read-outs that look alike come from different tables or passages of the source. Where no end group is shown, it is not given here.

FHLVWRAGGTF [Peptide #14d]: the MIC was more than 250 µg/mL in [1] (ATCC 25922, 24 h); 31.2 µg/mL in [5] (ATCC 10231, 24 h); more than 250 µg/mL in assay [6] (ATCC 15442, 24 h); more than 250 µg/mL in [9] (ATCC 29212, 24 h); more than 250 µg/mL in assay [10] (ATCC 25923, 24 h). The “minimal fungicidal concentration (MFC)” value in assay [2] is 62.5 µg/mL. In assay [3], the “biofilm morphology by SEM” value was “evident variations in the morphology, inducing wrinkles and scars”. The “membrane integrity (PI uptake, red fluorescence)” value in assay [4] is “damaged the cell membrane and induced an increase in red fluorescence intensity”. Moreover, in [7], the “BIC50 (biofilm inhibition concentration)” value was 23.2 µg/mL. Moreover, the “ROS overproduction (DCFH-DA fluorescence)” value in assay [8] is reported as “did not induce ROS overproduction”.

Consider NNWTGADCKAATLK [Peptide #5], for which the MIC was more than 250 µg/mL in assay [1] (ATCC 25922, 24 h); more than 250 µg/mL in assay [5] (ATCC 10231, 24 h); more than 250 µg/mL in assay [6] (ATCC 15442, 24 h); more than 250 µg/mL in assay [9] (ATCC 29212, 24 h); more than 250 µg/mL in [10] (ATCC 25923, 24 h). Besides, in assay [11], the “EC50 (concentration to inhibit 50% of the viable bacteria)” value was more than 100 µg/mL.

YGGYFGNR [Peptide #7]: the MIC in [1] (ATCC 25922, 24 h) was more than 250 µg/mL; in [5] (ATCC 10231, 24 h) it was more than 250 µg/mL; in assay [6] (ATCC 15442, 24 h) it was more than 250 µg/mL; in assay [9] (ATCC 29212, 24 h), more than 250 µg/mL; in assay [10] (ATCC 25923, 24 h), more than 250 µg/mL. In addition, the “EC50 (concentration to inhibit 50% of the viable bacteria)” value in assay [11] is more than 100 µg/mL.

On to FSLVNAVDQTT [Peptide #14], for which the minimal inhibitory concentration (MIC) is more than 250 µg/mL in assay [1] (ATCC 25922, 24 h); more than 250 µg/mL in [5] (ATCC 10231, 24 h); more than 250 µg/mL in [6] (ATCC 15442, 24 h); more than 250 µg/mL in assay [9] (ATCC 29212, 24 h); more than 250 µg/mL in [10] (ATCC 25923, 24 h). In addition, the “EC50 (concentration to inhibit 50% of the viable bacteria)” value in [11] is more than 100 µg/mL.

“NWWTGARCKAATLK [Peptide #5d, synthetic derivative of natural peptide #5]”: the MIC in assay [1] (setting [12]), in assay [6] (setting [13]), in assay [9] (setting [14]) and in assay [10] (setting [15]) was more than 250 µg/mL each time.

On to IIIRKGRW [Peptide #3d], for which the minimal inhibitory concentration (MIC) was more than 250 µg/mL in assay [1] (ATCC 25922, 24 h); more than 250 µg/mL in assay [6] (ATCC 15442, 24 h); more than 250 µg/mL in [9] (ATCC 29212, 24 h); more than 250 µg/mL in assay [10] (ATCC 25923, 24 h).

Take SSGYGGYGGGRF [Peptide #3]: the MIC is more than 250 µg/mL in assay [1] (setting [12]); more than 250 µg/mL in assay [5] (synthetic peptides, C. albicans ATCC 10231, maximum tested 250 μg/mL, 1:2 dilutions, Sabouraud, 37 °C 24 h, triplicate); more than 250 µg/mL in [6] (setting [13]); more than 250 µg/mL in assay [9] (setting [14]); more than 250 µg/mL in assay [10] (setting [15]). The “EC50 (concentration to inhibit 50% of the viable bacteria)” value in [11] was more than 100 µg/mL.
